Earlier results on one compound are cited in patent US12138347B2, “Nanoparticles and nanonetworks formed therefrom” (University of Houston System, priority 2018, dated 2024).

For one data set, the system named is HL60 leukemia cells. The conditions noted are these: p53 null cell line.
Another data set concerns K562 leukemia cells. The conditions noted are these: p53 null cell line.
The test system of data set [1] is HT-29 colon carcinoma cells. The conditions noted are these: p53 null cell line.

As for `C[C@H]1CCC/C=C/[C@@H]2C[C@H](O)C[C@H]2[C@H](O)/C=C/C(=O)O1` [BFA, Brefeldin A], the “potency in HL60 leukemia cells” value in the data set with HL60 leukemia cells is listed as “high potency”. Further, the “potency in K562 leukemia cells” value with K562 leukemia cells is on record as “high potency”. Moreover, the “potency in HT-29 colon carcinoma cells” value in data set [1] is recorded as “high potency”. Moreover, in the data set on prostate cancer cells, the “effect on efficacy of docetaxel” value was “enhances the efficacy”.
